PubChem BioAssay (NCI)
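Dose response: 5 concentrations. Exposure: 48 h. Format: 96-well plates. Endpoint: linear interpolation; highest concentration if not reached. TGI is the concentration that stops growth completely.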

How the values were obtained:
Test in all cases: inhibition of tumour cell growth, NCI panel, 48 h
786-0 renal = test system: 786-0 renal
A498 renal = test system: A498 renal
A549 NSCLC = test system: A549 NSCLC
ACHN renal = test system: ACHN renal
CAKI-1 renal = test system: CAKI-1 renal
CCRF-CEM leukemia = test system: CCRF-CEM leukemia
COLO 205 colon = test system: COLO 205 colon
DLD-1 colon = test system: DLD-1 colon
DMS 114 small cell lung = test system: DMS 114 small cell lung
DMS 273 small cell lung = test system: DMS 273 small cell lung
EKVX NSCLC = test system: EKVX NSCLC
HCC-2998 colon = test system: HCC-2998 colon
HCT-116 colon = test system: HCT-116 colon
HCT-15 colon = test system: HCT-15 colon
HL-60(TB) leukemia = test system: HL-60(TB) leukemia
HOP-18 NSCLC = test system: HOP-18 NSCLC
HOP-62 NSCLC = test system: HOP-62 NSCLC
HOP-92 NSCLC = test system: HOP-92 NSCLC
HT29 colon = test system: HT29 colon
IGROV1 ovarian = test system: IGROV1 ovarian
K-562 leukemia = test system: K-562 leukemia
KM12 colon = test system: KM12 colon
KM20L2 colon = test system: KM20L2 colon
LOX IMVI melanoma = test system: LOX IMVI melanoma
LXFL 529 NSCLC = test system: LXFL 529 NSCLC
M14 melanoma = test system: M14 melanoma
M19-MEL melanoma = test system: M19-MEL melanoma
MALME-3M melanoma = test system: MALME-3M melanoma
MOLT-4 leukemia = test system: MOLT-4 leukemia
NCI-H226 lung = test system: NCI-H226 lung
NCI-H23 lung = test system: NCI-H23 lung
NCI-H460 lung = test system: NCI-H460 lung
NCI-H522 lung = test system: NCI-H522 lung
OVCAR-3 ovarian = test system: OVCAR-3 ovarian
OVCAR-4 ovarian = test system: OVCAR-4 ovarian
OVCAR-5 ovarian = test system: OVCAR-5 ovarian
OVCAR-8 ovarian = test system: OVCAR-8 ovarian
RPMI-8226 leukemia = test system: RPMI-8226 leukemia
RXF 393 renal = test system: RXF 393 renal
RXF-631 renal = test system: RXF-631 renal
SF-268 CNS = test system: SF-268 CNS
SF-295 CNS = test system: SF-295 CNS
SF-539 CNS = test system: SF-539 CNS
SK-MEL-2 melanoma = test system: SK-MEL-2 melanoma
SK-MEL-28 melanoma = test system: SK-MEL-28 melanoma
SK-MEL-5 melanoma = test system: SK-MEL-5 melanoma
SK-OV-3 ovarian = test system: SK-OV-3 ovarian
SN12C renal = test system: SN12C renal
SNB-19 CNS = test system: SNB-19 CNS
SNB-75 CNS = test system: SNB-75 CNS
SNB-78 CNS = test system: SNB-78 CNS
SR leukemia = test system: SR leukemia
SW-620 colon = test system: SW-620 colon
TK-10 renal = test system: TK-10 renal
U251 CNS = test system: U251 CNS
UACC-257 melanoma = test system: UACC-257 melanoma
UACC-62 melanoma = test system: UACC-62 melanoma
UO-31 renal = test system: UO-31 renal
XF 498 CNS = test system: XF 498 CNS

Measured: TGI

CC1(Br)C(=O)NC(=O)N([C@H]2C[C@H](O)[C@@H](CO)O2)C1N=[N+]=[N-] (stereo not given in full)
> 100 µM: all assays above

O=c1c2cc(-c3ccccc3)sc2nc2sc(-c3ccccc3)nn12
not listed: ACHN renal | HCC-2998 colon | SK-MEL-28 melanoma
> 100 µM: all other assays above
